These results are taken from patent publication US20150105458A1, “LINE LEAF INULA FLOWER LACTONE A AND METHODS FOR PREPARING AND USING THE SAME FOR TREATING MULTIPLE SCLEROSIS” (SHANXI ZHENDONG PILOT BIOLOGICAL SCIENCE AND TECHNOLOGY …, priority 2012, published 2015).

Experiment [1] concerns brain tissue of EAE mice. The experiment can be described thus: HE staining of brain tissue of EAE mice. The experiment is classed as in vivo, C57BL/6 mice. The conditions noted are these: intragastric administration, 50 mg/kg and higher doses; FIG. 2. On the procedure:
(§1) EAE was induced in C57BL/6 mice (six mice per group) by subcutaneous injection of 0.1 ml of […] (in PBS, 300 μg/per mouse) on day 0, emulsified with Complete Freund's adjuvant (1:1) supplemented with Mycobacterium tuberculosis H37Ra antigen (400 μg/per mouse) or with Complete Freund's adjuvant alone as a control. All mice immunized with MOG received 250 ng pertussis toxin prepared in PBS, on days 0 and 2 by intraperitoneal injection.
(§2) Line leaf inula flower lactone A 45.3 g (from Example 1) was suspended in 0.5% CMC—Na (carboxymethyl cellulose sodium) to make a mixture with final concentration as 10 mg/ml, then diluted to four concentration gradients: (1) 25 mg/kg per day; (2) 50 mg/kg per day; (3) 100 mg/kg per day; (4) 200 mg/kg per day. The drug was given to the mice by intragastric administration from day 0 to day 30.

Experiment [2] deals with EAE mice. The experiment can be described thus: EAE model in mice, clinical course (onset and severity). In kind it is in vivo, C57BL/6 mice. Conditions: intragastric administration, 50 mg/kg once per day and higher doses, day 0 to day 30; FIG. 1. As to the method: as §1, §2

As to `C=C1C(=O)O[C@H]2C[C@@H](C)[C@@H]3[C@@H](OC(C)=O)C[C@H](O)[C@@]3(C)[C@@H](OC(C)=O)[C@H]12` [line leaf inula flower lactone A], in experiment [1], the “arrangement of the organization (brain tissue, HE staining)” value is on record as “basically returned to normal condition”; the “inflammatory cells in brain and blood vessels (HE staining)” value is “reduced number of inflammatory cells in brain and blood vessels”. Moreover, in experiment [2], the “onset of EAE” value is on record as “significantly delay the onset of EAE” and the “severity of the disease (EAE)” value was “reduced the severity of the disease”.
